Where two headings read alike, the source gives them in different places.
Experiments:
Experiment in all cases: Greenhouse test, pre-emergence treatment
[1] = system: EPHHL; type: in vivo, Euphorbia heterophylla; details: Euphorbia heterophylla, pre-emergence, 480 h
Outline: (§1)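 Seeds were sown in loamy sand with about 3.0% humus, and compounds in water were sprayed immediately after sowing, alone or as combinations formulated as 10% emulsion concentrates. Plants grew under hoods until rooted, at 10-25 °C or 20-35 °C by species, for 2 to 4 weeks. Damage was scored 0-100 (100 = no emergence or complete destruction), and Colby expected values were E=X+Y−(X·Y/100).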

[2] = system: GALAP; type: in vivo, Galium aparine; details: Galium aparine, pre-emergence, 480 h
Outline: as §1

[3] = system: ABUTH; type: in vivo, Abutilon theophrasti; details: Abutilon theophrasti, 480 h, 25 g ai/ha, 20 DAT, read-out: observed % activity
Outline: as §1

[4] = system: KCHSC; type: in vivo, Kochia scoparia; details: Bassia scoparia, pre-emergence, 480 h, 20 DAT, read-out: observed % activity
Outline: as §1

[5] = system: ANTAR; type: in vivo; details: Anthemis arvensis, 480 h, 20 DAT, read-out: observed % activity
Excerpt: The culture containers used were plastic flowerpots containing loamy sand with approximately 3.0% of humus as the substrate. The seeds of the test plants were sown separately for each species.
For the pre-emergence treatment, the active ingredients, which had been suspended or emulsified in water, were applied directly after sowing by means of finely distributing nozzles. The containers were irrigated gently to promote germination and growth and subsequently covered with transparent plastic hoods until the plants had rooted. This cover caused uniform germination of the test plants, unless this had been impaired by the active ingredients.
Depending on the species, the plants were kept at 10-25° C. or 20-35° C., respectively.
The test period extended over 2 to 4 weeks. During this time, the plants were tended, and their response to the individual treatments was evaluated.
Evaluation was carried out using a scale from 0 to 100. 100 means no emergence of the plants, or complete destruction of at least the aerial moieties, and 0 means no damage, or normal course of growth. A moderate herbicidal activity is given at values of at least 60, a good herbicidal activity is given at values of at least 70, and a very good herbicidal activity is given at values of at least 85.
The respective stated components a and b, and if appropriate, c were formulated as a 10% by weight strength emulsion concentrate and, with addition of the amount of solvent system, introduced into the spray liquor used for applying the active compound.
In the examples, the solvent used was water.
In the examples below, using the method of S. R. Colby (1967) “Calculating synergistic and antagonistic responses of herbicide combinations”, Weeds 15, p. 22ff., the value E, which is expected if the activity of the individual active compounds is only additive, was calculated. E=X+Y−(X·Y/100) where • X=percent activity using active compound a at an application rate A; • Y=percent activity using active compound b at an application rate B; • E=expected activity (in %) by a+b at application rates A+B.
If the value found experimentally is higher than the value E calculated according to Colby, a synergistic effect is present.

[6] = system: GERPU; type: in vivo, Geranium pusillum; details: Geranium pusillum, pre-emergence, 480 h
Outline: as §1

[7] = system: POLCO; type: in vivo, Polygonum convolvulus; details: Fallopia convolvulus, pre-emergence, 480 h
Outline: as §1

[8] = system: CENCY; type: in vivo; details: 480 h, individual, read-out: observed % activity 20 DAT
[9] = system: IPOHE; type: in vivo, Ipomoea hederacea; details: Ipomoea hederacea, 480 h, 50 g ai/ha, 20 DAT, read-out: observed % activity
Outline: as §1

[10] = system: SIDRH; type: in vivo, Sida rhombifolia; details: 20 DAT
Outline: as §1

[11] = system: COMBE; type: in vivo, Commelina benghalensis; details: Commelina benghalensis, pre-emergence, 480 h
Outline: as §1

[12] = 25 g ai/ha, 20 DAT, read-out: observed % activity
[13] = 50 g ai/ha, 20 DAT, read-out: observed % activity

## CS(=O)(=O)c1ccc(C(=O)C2C(=O)CCCC2=O)c([N+](=O)[O-])c1 [Mesotrione, mesotrione]
[1]; [12]
  inhibition at 25 g/ha: 60%
[1]; [13]
  inhibition at 50 g/ha: 70%
[1]; EPHHL, individual, use rate 25 g ai/ha, read-out: observed % activity 20 DAT
  inhibition at 25 g/ha: 50%
[1]; EPHHL, individual, use rate 50 g ai/ha, read-out: observed % activity 20 DAT
  inhibition at 50 g/ha: 60%
[2]; [13]
  inhibition at 50 g/ha: 75%
[2]; GALAP, individual, use rate 25 g ai/ha, read-out: observed % activity 20 DAT
  inhibition at 25 g/ha: 65%
[2]; GALAP, individual, use rate 50 g ai/ha, read-out: observed % activity 20 DAT
  inhibition at 50 g/ha: 80%
[3]
  inhibition at 25 g/ha: 95%
[4]; 25 g ai/ha
  inhibition at 25 g/ha: 70%
[4]; 50 g ai/ha
  inhibition at 50 g/ha: 90%
[5]; 25 g ai/ha
  inhibition at 25 g/ha: 85%
[5]; 50 g ai/ha
  inhibition at 50 g/ha: 95%
[6]; [12]
  inhibition at 25 g/ha: 0%
[6]; [13]
  inhibition at 50 g/ha: 0%
[6]; GERPU, individual, use rate 25 g ai/ha, read-out: observed % activity 20 DAT
  inhibition at 25 g/ha: 70%
[7]; [12]
  inhibition at 25 g/ha: 20%
[7]; [13]
  inhibition at 50 g/ha: 30%
[7]; POLCO, individual, use rate 25 g ai/ha, read-out: observed % activity 20 DAT
  inhibition at 25 g/ha: 0%
[7]; POLCO, individual, use rate 50 g ai/ha, read-out: observed % activity 20 DAT
  inhibition at 50 g/ha: 0%
[8]; use rate 25 g ai/ha
  inhibition at 25 g/ha: 60%
[8]; use rate 50 g ai/ha
  inhibition at 50 g/ha: 40%
[9]
  inhibition at 50 g/ha: 30%
[10]; 25 g ai/ha
  observed % activity: 55%
[10]; Sida rhombifolia, pre-emergence, 480 h, 25 g ai/ha, read-out: observed % activity
  inhibition at 25 g/ha: 60%
[10]; Sida rhombifolia, pre-emergence, 480 h, 50 g ai/ha, read-out: observed % activity
  inhibition at 50 g/ha: 85%
[11]; [12]
  inhibition at 25 g/ha: 65%
[11]; [13]
  inhibition at 50 g/ha: 98%
[11]; COMBE, individual, use rate 25 g ai/ha, read-out: observed % activity 20 DAT
  inhibition at 25 g/ha: 0%
[11]; COMBE, individual, use rate 50 g ai/ha, read-out: observed % activity 20 DAT
  inhibition at 50 g/ha: 0%

Reference: patent US9999222B2, “Herbicidal combination comprising azines” (BASF SE, priority 2014, dated 2018)
